Measured values: patent publication US9604996B2 (Bayer Pharma Aktiengesellschaft, priority 2013, dated 2017)

How the values were obtained:
[1] = test system: IL-6 release by human fibroblast cell line LL29; assay: NECA-induced IL-6 release by LL29 fibroblasts (ELISA); assay type: cell-based; conditions: NECA 10 μM, 24 hours incubation, IL-6 ELISA of supernatant, in some cases means, rounded to two significant digits
Method: B-2. Measurement of NECA-Induced IL-6 Release by LL29 Fibroblasts
Stimulation of fibroblasts with adenosine or the adenosine analog 5′-N-ethylcarboxamidoadenosine (NECA) leads to release of the pro-inflammatory and pro-fibrotic cytokine IL-6 which can be prevented by inhibition of the A2b receptor.
Accordingly, confluent cells of the human fibroblast cell line LL29 were treated with the test substances and stimulated with NECA (10 μM). After an incubation time of 24 hours, the cell supernatant is removed and human IL-6 in the cell supernatant is determined by ELISA (Quantikine® IL6 ELISA, R&D Systems, Minneapolis, USA).

[2] = target: T1, human adenosine A2b receptor (Homo sapiens, UniProt P29275); assay: Cellular reporter gene (CRE-luciferase) A2b receptor antagonist assay in recombinant CHO-K1 cells stimulated with NECA; assay type: cell-based; conditions: recombinant CHO-K1 cell line, co-incubation with EC50 concentration of NECA, 3 hours, in some cases means, rounded to two significant digits
T1 construct: expressed in transfected cells; host or cells: CHO-K1 (Chinese Hamster Ovary) with CRE-luciferase reporter
T1 sequence (P29275 1-332): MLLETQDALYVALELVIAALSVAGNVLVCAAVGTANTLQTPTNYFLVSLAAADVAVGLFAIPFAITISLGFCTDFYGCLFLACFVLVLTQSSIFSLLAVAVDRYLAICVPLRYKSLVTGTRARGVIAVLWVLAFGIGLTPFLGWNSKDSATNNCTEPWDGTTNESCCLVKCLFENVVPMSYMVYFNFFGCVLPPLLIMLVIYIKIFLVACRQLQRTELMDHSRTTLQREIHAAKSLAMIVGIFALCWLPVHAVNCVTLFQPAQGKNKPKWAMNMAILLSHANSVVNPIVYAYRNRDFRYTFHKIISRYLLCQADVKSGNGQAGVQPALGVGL
Summary of the method: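 CHO-K1 cells expressing human A2b receptor with a CRE-driven firefly luciferase reporter, co-incubated with test compound and NECA at its same-day EC50 concentration. Luminescence read 3 hours after NECA addition.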

| Structure (SMILES) | IC50 [1] [nM] | IC50 [2] [nM] |
| --- | --- | --- |
| O=C(c1sc2c(c1C(F)(F)F)c(=O)n(CCc1ccccc1)c(=O)n2CCC(F)(F)F)N1CCC(O)CC1 [Example 24, 6-[(4-Hydroxypiperidin-1-yl)carbonyl]-3-(2-phenylethyl)-5-(trifluoromethyl)-1-(3,3,3-trifluoropropyl)thieno[2,3-d]pyrimidine-2,4(1H,3H)-dione] | 10 | 13 |
| Cc1c(C(=O)N2CCNC(=O)C2)sc2c1c(=O)n(CCc1ccccc1F)c(=O)n2CCC(F)(F)F [Example 29, 3-[2-(2-Fluorophenyl)ethyl]-5-methyl-6-[(3-oxopiperazin-1-yl)carbonyl]-1-(3,3,3-trifluoropropyl)thieno[2,3-d]pyrimidine-2,4(1H,3H)-dione] | 23 | 21 |
| CCn1c(=O)c2c(C)c(C(=O)N3CCC(O)CC3)sc2n(CCC(F)(F)F)c1=O [Example 18, 3-Ethyl-6-[(4-hydroxypiperidin-1-yl)carbonyl]-5-methyl-1-(3,3,3-trifluoropropyl)thieno[2,3-d]pyrimidine-2,4(1H,3H)-dione] | 170 | 57 |
| Cc1c(C(=O)N2CCNC(=O)C2)sc2c1c(=O)n(CCc1ccccc1Cl)c(=O)n2CCC(F)(F)F [Example 31, 3-[2-(2-Chlorophenyl)ethyl]-5-methyl-6-[(3-oxopiperazin-1-yl)carbonyl]-1-(3,3,3-trifluoropropyl)thieno[2,3-d]pyrimidine-2,4(1H,3H)-dione] | 16 | 16 |
| Cc1ccccc1CCn1c(=O)c2c(C)c(C(=O)N3CCC(O)CC3)sc2n(CCC(F)(F)F)c1=O [Example 8, 6-[(4-Hydroxypiperidin-1-yl)carbonyl]-5-methyl-3-[2-(2-methylphenyl)ethyl]-1-(3,3,3-trifluoropropyl)thieno[2,3-d]pyrimidine-2,4(1H,3H)-dione] | 34 | 20 |
| CCn1c(=O)c2c(C)c(C(=O)N3CCC(C)(O)CC3)sc2n(CCC(F)(F)F)c1=O [Example 21, 3-Ethyl-6-[(4-hydroxy-4-methylpiperidin-1-yl)carbonyl]-5-methyl-1-(3,3,3-trifluoropropyl)thieno [2,3-d]pyrimidine-2,4(1H,3H)-dione] | 69 | 25 |
| CCc1c(C(=O)N2CCC(O)(CO)CC2)sc2c1c(=O)n(CC)c(=O)n2CCC(F)(F)F [Example 89, 3,5-Diethyl-6-{[4-hydroxy-4-(hydroxymethyl)piperidin-1-yl]carbonyl}-1-(3,3,3-trifluoropropyl)thieno[2,3-d]pyrimidine-2,4(1H,3H)-dione] | 48 | 35 |
| Cc1c(C(=O)N2CCNC(=O)C2)sc2c1c(=O)n(CCc1cccnc1)c(=O)n2CCC(F)(F)F [Example 33, 5-Methyl-6-[(3-oxopiperazin-1-yl)carbonyl]-3-[2-(pyridin-3-yl)ethyl]-1-(3,3,3-trifluoropropyl)thieno[2,3-d]pyrimidine-2,4(1H,3H)-dione] | 140 | 67 |
| Cc1c(C(=O)N2CCC(O)CC2)sc2c1c(=O)n(CCc1ccccc1F)c(=O)n2CCC(F)(F)F [Example 4, 3-[2-(2-Fluorophenyl)ethyl]-6-[(4-hydroxypiperidin-1-yl)carbonyl]-5-methyl-1-(3,3,3-trifluoropropyl)thieno[2,3-d]pyrimidine-2,4(1H,3H)-dione] | 39 | 25 |
| CCn1c(=O)c2c(C)c(C(=O)N3CCNC(=O)C3)sc2n(CCC(F)(F)F)c1=O [Example 35, 3-Ethyl-5-methyl-6-[(3-oxopiperazin-1-yl)carbonyl]-1-(3,3,3-trifluoropropyl)thieno[2,3-d]pyrimidine-2,4(1H,3H)-dione] | 250 | 120 |
| Cc1c(C(=O)N2CCC(O)CC2)sc2c1c(=O)n(CCc1cccnc1)c(=O)n2CCC=C(F)F [Example 16, 1-(4,4-Difluorobut-3-en-1-yl)-6-[(4-hydroxypiperidin-1-yl)carbonyl]-5-methyl-3-[2-(pyridin-3-yl)ethyl]thieno[2,3-d]pyrimidine-2,4(1H,3H)-dione] | 89 | 38 |
| O=C1CN(C(=O)c2sc3c(c2C(F)(F)F)c(=O)n(CCc2ccccc2)c(=O)n3CCC(F)(F)F)CCN1 [Example 41, 6-[(3-Oxopiperazin-1-yl)carbonyl]-3-(2-phenylethyl)-5-(trifluoromethyl)-1-(3,3,3-trifluoropropyl)thieno[2,3-d]pyrimidine-2,4(1H,3H)-dione] | 29 | 26 |
| Cc1c(C(=O)N2CCC(O)CC2)sc2c1c(=O)n(CCc1ccncc1)c(=O)n2CCC(F)(F)F [Example 54, 6-[(4-Hydroxypiperidin-1-yl)carbonyl]-5-methyl-3-[2-(pyridin-4-yl)ethyl]-1-(3,3,3-trifluoropropyl)thieno[2,3-d]pyrimidine-2,4(1H,3H)-dione] | 330 | 76 |
| CCc1c(C(=O)N2CCC(C)(O)CC2)sc2c1c(=O)n(CC)c(=O)n2CCC(F)(F)F [Example 88, 3,5-Diethyl-6-[(4-hydroxy-4-methylpiperidin-1-yl)carbonyl]-1-(3,3,3-trifluoropropyl)thieno[2,3-d]pyrimidine-2,4(1H,3H)-dione] | 9 | 8.7 |
| CCn1c(=O)c2c(C)c(C(=O)N3CCC(O)(CO)CC3)sc2n(CCC(F)(F)F)c1=O [Example 74, 3-Ethyl-6-{[4-hydroxy-4-(hydroxymethyl)piperidin-1-yl]carbonyl}-5-methyl-1-(3,3,3-trifluoropropyl)thieno[2,3-d]pyrimidine-2,4(1H,3H)-dione] | 250 | 110 |
| Cc1c(C(=O)N2CCC(O)CC2)sc2c1c(=O)n(CCc1ccccc1Cl)c(=O)n2CCC(F)(F)F [Example 6, 3-[2-(2-Chlorophenyl)ethyl]-6-[(4-hydroxypiperidin-1-yl)carbonyl]-5-methyl-1-(3,3,3-trifluoropropyl)thieno [2,3-d]pyrimidine-2,4(1H,3H)-dione] | 27 | 13 |
| Cc1c(C(=O)N2CCNC(=O)C2)sc2c1c(=O)n(CCc1ccccc1)c(=O)n2CCC(F)(F)F [Example 26, 5-Methyl-6-[(3-oxopiperazin-1-yl)carbonyl]-3-(2-phenylethyl)-1-(3,3,3-trifluoropropyl)thieno[2,3-d]pyrimidine-2,4(1H,3H)-dione] | 53 | 17 |
| Cc1c(C(=O)N2CCNC(=O)C2)sc2c1c(=O)n(CCc1ccccc1Cl)c(=O)n2CCC=C(F)F [Example 32, 3-[2-(2-Chlorophenyl)ethyl]-1-(4,4-difluorobut-3-en-1-yl)-5-methyl-6-[(3-oxopiperazin-1-yl)carbonyl]thieno[2,3-d]pyrimidine-2,4(1H,3H)-dione] | 230 | 110 |
| COC(Cn1c(=O)c2c(C)c(C(=O)N3CCC(O)(CO)CC3)sc2n(CCC(F)(F)F)c1=O)C(F)(F)F (single isomer, unassigned) [Example 114, 6-{[4-Hydroxy-4-(hydroxymethyl)piperidin-1-yl]carbonyl}-5-methyl-3-(3,3,3-trifluoro-2-methoxypropyl)-1-(3,3,3-trifluoropropyl)thieno[2,3-d]pyrimidine-2,4(1H,3H)-dione] | – | 110 |
| Cc1cccc(CCn2c(=O)c3c(C)c(C(=O)N4CCC(O)CC4)sc3n(CCC(F)(F)F)c2=O)c1 [Example 11, 6-[(4-Hydroxypiperidin-1-yl)carbonyl]-5-methyl-3-[2-(3-methylphenyl)ethyl]-1-(3,3,3-trifluoropropyl)thieno[2,3-d]pyrimidine-2,4(1H,3H)-dione] | – | 510 |
| COCCn1c(=O)n(CC(F)(F)c2ccccc2)c(=O)c2c(C)c(C(=O)N3CCC(O)(CO)CC3)sc21 [Example 71, 3-(2,2-Difluoro-2-phenylethyl)-6-{[4-hydroxy-4-(hydroxymethyl)piperidin-1-yl]carbonyl}-1-(2-methoxyethyl)-5-methylthieno[2,3-d]pyrimidine-2,4(1H,3H)-dione] | – | 420 |
| CCc1c(C(=O)N2CCNC(=O)C2)sc2c1c(=O)n(CC)c(=O)n2CCC(F)(F)F [Example 98, 3,5-Diethyl-6-[(3-oxopiperazin-1-yl)carbonyl]-1-(3,3,3-trifluoropropyl)thieno[2,3-d]pyrimidine-2,4(1H,3H)-dione] | – | 100 |
| Cc1c(C(=O)N2CCNC(=O)C2)sc2c1c(=O)n(CCc1ccccc1F)c(=O)n2CCC=C(F)F [Example 30, 1-(4,4-Difluorobut-3-en-1-yl)-3-[2-(2-fluorophenyl)ethyl]-5-methyl-6-[(3-oxopiperazin-1-yl)carbonyl]thieno[2,3-d]pyrimidine-2,4(1H,3H)-dione] | – | 53 |
| C#CCCn1c(=O)c2c(C)c(C(=O)N3CCC(O)CC3)sc2n(CCC(F)(F)F)c1=O [Example 61, 3-(But-3-yn-1-yl)-6-[(4-hydroxypiperidin-1-yl)carbonyl]-5-methyl-1-(3,3,3-trifluoropropyl)thieno[2,3-d]pyrimidine-2,4(1H,3H)-dione] | – | 17 |
